Measurements published in patent US12448399B2, “Cereblon-based KRAS degrading PROTACs and uses related thereto” (Arvinas Operations, Inc., priority 2023, dated 2025).

Target: T1, KRas-G12D (Homo sapiens, UniProt P01116, G12D)
T1 construct: insert the HiBiT tag onto the N-terminus of one or more of the endogenous KRas alleles; host or cells: AsPC-1 HiBiT-KRasG12D knock-in clone (one tagged allele, two untagged KRasG12D alleles)
Experiment: HiBiT Degradation Assay (G12D), AsPC-1 HiBiT-KRasG12D cells, 24 hr
Type: cell-based
Details: for Dmax: ASPC1, AsPC-1 cells, maximum degradation observed; for DC50: AsPC-1 cells
Method in brief: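 AsPC-1 cells with CRISPR N-terminal HiBiT knock-in on one endogenous KRasG12D allele, treated 24 hr at 37° C with compound titrations in 0.5% DMSO. Lytic HiBiT luminescence normalized to DMSO, fitted to a 4-parameter model for DC50 and Dmax. Parallel alamar blue (4 hr) checked viability.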

T1 sequence (P01116 1-188 isoform P01116-2 G12D): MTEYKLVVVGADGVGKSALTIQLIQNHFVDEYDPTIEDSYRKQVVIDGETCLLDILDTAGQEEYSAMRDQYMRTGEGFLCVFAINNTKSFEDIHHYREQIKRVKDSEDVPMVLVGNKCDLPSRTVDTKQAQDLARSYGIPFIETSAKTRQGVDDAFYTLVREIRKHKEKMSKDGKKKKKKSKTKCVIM

## CCc1cccc2cc(O)cc(-c3ncc4c(N5CC6CCC(C5)N6)nc(OCCN5CCC(CC6CCN(c7cccc8c7C(=O)N(C7CCC(=O)NC7=O)C8=O)CC6)CC5)nc4c3F)c12 (stereo not drawn) [Compound 66, 4-[4-[[1-[2-[4-(3,8-diazabicyclo[3.2.1]octan-3-yl)-7-(8-ethyl-3-hydroxy-1-naphthyl)-8-fluoro-pyrido[4,3-d]pyrimidin-2-yl]oxyethyl]-4-piperidyl]methyl]-1-piperidyl]-2-(2,6-dioxo-3-piperidyl)isoindoline-1,3-dione]
  Dmax: ≤ 25%
  DC50: 0.25 to 1 µM

## CCc1cccc2cc(O)cc(-c3ncc4c(N5CC6CCC(C5)N6)nc(OCCN5CCC(CC6CCN(c7ccc8c(c7)C(=O)N(C7CCC(=O)NC7=O)C8=O)CC6)CC5)nc4c3F)c12 (stereo not drawn) [Compound 67, 5-[4-[[1-[2-[4-(3,8-diazabicyclo[3.2.1]octan-3-yl)-7-(8-ethyl-3-hydroxy-1-naphthyl)-8-fluoro-pyrido[4,3-d]pyrimidin-2-yl]oxyethyl]-4-piperidyl]methyl]-1-piperidyl]-2-(2,6-dioxo-3-piperidyl)isoindoline-1,3-dione]
  DC50: > 1 µM

## C#Cc1c(F)ccc2cc(O)cc(-c3ncc4c(C5CC6CCC(C5)N6)nc(OCCN5CCC(CC6CCN(CC7CCN(c8ccc9c(c8)CN(C8CCC(=O)NC8=O)C9=O)CC7)CC6)CC5)nc4c3F)c12 (stereo not drawn) [Compound 68]
  Dmax: > 70%
  DC50: < 5.1 µM

## C#Cc1c(F)ccc2cc(O)cc(-c3ncc4c(C5CC6CCC(C5)N6)nc(OCCN5CCC6(CC5)CCN(CC5CCN(c7ccc8c(c7)CN(C7CCC(=O)NC7=O)C8=O)CC5)CC6)nc4c3F)c12 (stereo not drawn) [Compound 70]
  Dmax: > 70%
  DC50: < 5.1 µM

## CCc1cccc2cc(O)cc(-c3ncc4c(C5CC6CCC(C5)N6)nc(OC[C@@H]5C[C@@H](OC6CCN(CC7CCN(c8ccc9c(c8)CN(C8CCC(=O)NC8=O)C9=O)CC7)CC6)CN5C)nc4c3F)c12 (stereo partly drawn) [Compound 71]
  Dmax: > 70%
  DC50: < 5.1 µM

## C#Cc1c(F)ccc2cc(O)cc(-c3ncc4c(C5CC6CCC(C5)N6)nc(OCCN5CCC(CN6CC7(CCN(c8ccc9c(c8)CN(C8CCC(=O)NC8=O)C9=O)CC7)C6)CC5)nc4c3F)c12 (stereo not drawn) [Compound 72]
  Dmax: > 70%
  DC50: < 5.1 µM

## C#Cc1c(F)ccc2cc(O)cc(-c3ncc4c(C5CC6CCC(C5)N6)nc(OCCN5CCC(CC6CCN(CC7CCN(c8ccc9c(c8)C(=O)N(C8CCC(=O)NC8=O)C9=O)CC7)CC6)CC5)nc4c3F)c12 (stereo not drawn) [Compound 74]
  Dmax: > 70%
  DC50: < 5.1 µM

## C#Cc1c(F)ccc2cc(O)cc(-c3ncc4c(N5CC6CCC(C5)N6)nc(OCCN5CCC(CC6CCN(CC7CCN(c8cccc9c8C(=O)N(C8CCC(=O)NC8=O)C9=O)CC7)CC6)CC5)nc4c3F)c12 (stereo not drawn) [Compound 75]
  DC50: < 5.1 µM

## C#Cc1c(F)ccc2cc(O)cc(-c3ncc4c(N5CC6CCC(C5)N6)nc(OCCN5CCC6(CC5)CCN(CC5CCN(c7ccc8c(c7)C(=O)N(C7CCC(=O)NC7=O)C8=O)CC5)CC6)nc4c3F)c12 (stereo not drawn) [Compound 76]
  Dmax: > 70%
  DC50: < 5.1 µM

## CCc1cccc2cc(O)cc(-c3ncc4c(N5CC6CCC(C5)N6)nc(OC[C@@H]5C[C@@H](OC6CCN(c7ccc8c(c7)CN(C7CCC(=O)NC7=O)C8=O)CC6)CN5C)nc4c3F)c12 (stereo partly drawn) [Compound 77]
  Dmax: > 70%
  DC50: < 5.1 µM

## C#Cc1c(F)ccc2cc(O)cc(-c3ncc4c(N5CC6CCC(C5)N6)nc(OCCN5CCC(C(F)(F)C6CCN(CC7CCN(c8ccc9c(c8F)CN(C8CCC(=O)NC8=O)C9=O)CC7)CC6)CC5)nc4c3F)c12 (stereo not drawn) [Compound 79, 3-{5-[4-({4-[(1-{2-[(4-{3,8-diazabicyclo[3.2.1]octan-3-yl}-7-(8-ethynyl-7-fluoro-3-hydroxynaphthalen-1-yl)-8-fluoropyrido[4,3-d]pyrimidin-2-yl)oxy]ethyl}piperidin-4-yl)difluoromethyl]piperidin-1-yl}methyl)piperidin-1-yl]-4-fluoro-1-oxo-2,3-dihydro-1H-isoindol-2-yl}piperidine-2,6-dione]
  Dmax: > 70%
  DC50: < 5.1 µM

## C#Cc1c(F)ccc2cc(O)cc(-c3ncc4c(N5CC6CCC(C5)N6)nc(OCCN5CCC(CN6CCC(CC7CCN(c8ccc9c(c8)n(C(C)C)c(=O)n9C8CCC(=O)NC8=O)CC7)CC6)CC5)nc4c3F)c12 (stereo not drawn) [Compound 80, 3-{5-[4-({1-[(1-{2-[(4-{3,8-diazabicyclo[3.2.1]octan-3-yl}-7-(8-ethynyl-7-fluoro-3-hydroxynaphthalen-1-yl)-8-fluoropyrido[4,3-d]pyrimidin-2-yl)oxy]ethyl}piperidin-4-yl)methyl]piperidin-4-yl}methyl)piperidin-1-yl]-2-oxo-3-(propan-2-yl)-2,3-dihydro-1H-1,3-benzodiazol-1-yl}piperidine-2,6-dione]
  Dmax: > 70%
  DC50: < 5.1 µM

## C#Cc1c(F)ccc2cc(O)cc(-c3ncc4c(N5CC6CCC(C5)N6)nc(OCCN5CCC(CN6CCC(CC7CCN(c8ccc9c(c8Cl)CN(C8CCC(=O)NC8=O)C9=O)CC7)CC6)CC5)nc4c3F)c12 (stereo not drawn) [Compound 81, 3-{4-chloro-5-[4-({1-[(1-{2-[(4-{3,8-diazabicyclo[3.2.1]octan-3-yl}-7-(8-ethynyl-7-fluoro-3-hydroxynaphthalen-1-yl)-8-fluoropyrido[4,3-d]pyrimidin-2-yl)oxy]ethyl}piperidin-4-yl)methyl]piperidin-4-yl}methyl)piperidin-1-yl]-1-oxo-2,3-dihydro-1H-isoindol-2-yl}piperidine-2,6-dione]
  Dmax: > 70%
  DC50: < 5.1 µM

## C#Cc1c(F)ccc2cc(O)cc(-c3ncc4c(N5CC6CCC(C5)N6)nc(OCCN5CCC(CN6CCC(CC7CCN(c8ccc9c(c8)n(C)c(=O)n9C8CCC(=O)NC8=O)CC7)CC6)CC5)nc4c3F)c12 (stereo not drawn) [Compound 82, 3-{5-[4-({1-[(1-{2-[(4-{3,8-diazabicyclo[3.2.1]octan-3-yl}-7-(8-ethynyl-7-fluoro-3-hydroxynaphthalen-1-yl)-8-fluoropyrido[4,3-d]pyrimidin-2-yl)oxy]ethyl}piperidin-4-yl)methyl]piperidin-4-yl}methyl)piperidin-1-yl]-3-methyl-2-oxo-2,3-dihydro-1H-1,3-benzodiazol-1-yl}piperidine-2,6-dione]
  Dmax: > 70%
  DC50: < 5.1 µM

## C#Cc1c(F)ccc2cc(O)cc(-c3ncc4c(N5CC6CCC(C5)N6)nc(OCCN5CCC6(CC5)CCN(CC5CCN(c7cccc8c7n(C)c(=O)n8C7CCC(=O)NC7=O)CC5)CC6)nc4c3F)c12 (stereo not drawn) [Compound 83, 3-(4-{4-[(9-{2-[(4-{3,8-diazabicyclo[3.2.1]octan-3-yl}-7-(8-ethynyl-7-fluoro-3-hydroxynaphthalen-1-yl)-8-fluoropyrido[4,3-d]pyrimidin-2-yl)oxy]ethyl}-3,9-diazaspiro[5.5]undecan-3-yl)methyl]piperidin-1-yl}-3-methyl-2-oxo-2,3-dihydro-1H-1,3-benzodiazol-1-yl)piperidine-2,6-dione]
  Dmax: > 70%
  DC50: < 5.1 µM

## C#Cc1c(F)ccc2cc(O)cc(-c3ncc4c(N5CC6CCC(C5)N6)nc(OC[C@]56CCCN5[C@H](CN5CCN(CC7CCN(c8ccc9c(c8)CN(C8CCC(=O)NC8=O)C9=O)CC7)CC5)CC6)nc4c3F)c12 (stereo partly drawn) [Compound 84, 3-[5-[4-[[4-[[(3S,8R)-8-[[4-(3,8-diazabicyclo[3.2.1]octan-3-yl)-7-(8-ethynyl-7-fluoro-3-hydroxy-1-naphthyl)-8-fluoro-pyrido[4,3-d]pyrimidin-2-yl]oxymethyl]-1,2,3,5,6,7-hexahydropyrrolizin-3-yl]methyl]piperazin-1-yl]methyl]-1-piperidyl]-1-oxo-isoindolin-2-yl]piperidine-2,6-dione]
  Dmax: > 70%
  DC50: < 5.1 µM

## CCc1c(F)ccc2cc(O)cc(-c3ncc4c(N5CC6CCC(C5)N6)nc(OC[C@@H]5C[C@@H](OC6CCN(CC7CCN(c8ccc9c(c8)CN(C8CCC(=O)NC8=O)C9=O)CC7)CC6)CN5C)nc4c3F)c12 (stereo partly drawn) [Compound 85, 3-(5-{4-[(4-{[(3R,5S)-5-{[(4-{3,8-diazabicyclo[3.2.1]octan-3-yl}-7-(8-ethyl-7-fluoro-3-hydroxynaphthalen-1-yl)-8-fluoropyrido[4,3-d]pyrimidin-2-yl)oxy]methyl}-1-methylpyrrolidin-3-yl]oxy}piperidin-1-yl)methyl]piperidin-1-yl}-1-oxo-2,3-dihydro-1H-isoindol-2-yl)piperidine-2,6-dione]
  Dmax: > 70%
  DC50: < 5.1 µM

## CCc1c(F)ccc2cc(O)cc(-c3ncc4c(N5CC6CCC(C5)N6)nc(OCCN5CCC(CC6CCN(CC7CCN(c8ccc9c(c8)CN(C8CCC(=O)NC8=O)C9=O)CC7)CC6)CC5)nc4c3F)c12 (stereo not drawn) [Compound 86, 3-{5-[4-({4-[(1-{2-[(4-{3,8-diazabicyclo[3.2.1]octan-3-yl}-7-(8-ethyl-7-fluoro-3-hydroxynaphthalen-1-yl)-8-fluoropyrido[4,3-d]pyrimidin-2-yl)oxy]ethyl}piperidin-4-yl)methyl]piperidin-1-yl}methyl)piperidin-1-yl]-1-oxo-2,3-dihydro-1H-isoindol-2-yl}piperidine-2,6-dione]
  Dmax: > 70%
  DC50: < 5.1 µM

## C#Cc1c(F)ccc2cc(O)cc(-c3ncc4c(N5CC6CCC(C5)N6)nc(OCCN5CCC(CN6CCC(CC7CCN(c8ccc9c(c8)CN(C8CCC(=O)NC8=O)C9=O)CC7)CC6)CC5)nc4c3F)c12 (stereo not drawn) [Compound 87, 3-[5-[4-[[1-[[1-[2-[4-(3,8-diazabicyclo[3.2.1]octan-3-yl)-7-(8-ethynyl-7-fluoro-3-hydroxy-1-naphthyl)-8-fluoropyrido[4,3-d]pyrimidin-2-yl]oxyethyl]-4-piperidyl]methyl]-4-piperidyl]methyl]-1-piperidyl]-1-oxo-isoindolin-2-yl]piperidine-2,6-dione]
  Dmax: > 70%
  DC50: < 5.1 µM
